From PubChem BioAssay (NCI)
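Step 1: Grow cells in 96-well plates. Step 2: Expose to compound for 48 hours at 5 concentrations. Step 3: Interpolate endpoints linearly; if unreached, use highest concentration. GI50 marks 50% less growth. Definition used: TGI = concentration required for complete inhibition of growth.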

Columns and labels:
Assay in all cases: NCI tumour cell line growth inhibition, 48 h
[1] = tested on: 786-0 renal
[2] = tested on: A498 renal
[3] = tested on: A549 NSCLC
[4] = tested on: ACHN renal
[5] = tested on: BT-549 breast
[6] = tested on: CAKI-1 renal
[7] = tested on: CCRF-CEM leukemia
[8] = tested on: COLO 205 colon
[9] = tested on: DU-145 prostate
[10] = tested on: EKVX NSCLC
[11] = tested on: HCT-116 colon
[12] = tested on: HCT-15 colon
[13] = tested on: HL-60(TB) leukemia
[14] = tested on: HOP-62 NSCLC
[15] = tested on: HOP-92 NSCLC
[16] = tested on: HS 578T breast
[17] = tested on: HT29 colon
[18] = tested on: IGROV1 ovarian
[19] = tested on: K-562 leukemia
[20] = tested on: KM12 colon
[21] = tested on: LOX IMVI melanoma
[22] = tested on: M14 melanoma
[23] = tested on: MDA-MB-231 breast
[24] = tested on: MDA-MB-435
[25] = tested on: MDA-N
[26] = tested on: MOLT-4 leukemia
[27] = tested on: NCI-H226 lung
[28] = tested on: NCI-H23 lung
[29] = tested on: NCI-H460 lung
[30] = tested on: NCI/ADR-RES ovarian
[31] = tested on: OVCAR-3 ovarian
[32] = tested on: OVCAR-4 ovarian
[33] = tested on: OVCAR-5 ovarian
[34] = tested on: OVCAR-8 ovarian
[35] = tested on: PC-3 prostate
[36] = tested on: RPMI-8226 leukemia
[37] = tested on: RXF 393 renal
[38] = tested on: SF-268 CNS
[39] = tested on: SF-295 CNS
[40] = tested on: SF-539 CNS
[41] = tested on: SK-MEL-2 melanoma
[42] = tested on: SK-MEL-5 melanoma
[43] = tested on: SN12C renal
[44] = tested on: SNB-75 CNS
[45] = tested on: SR leukemia
[46] = tested on: SW-620 colon
[47] = tested on: T-47D breast
[48] = tested on: TK-10 renal
[49] = tested on: U251 CNS
[50] = tested on: UACC-257 melanoma
[51] = tested on: UACC-62 melanoma
[52] = tested on: UO-31 renal
[53] = tested on: HCC-2998 colon
[54] = tested on: MALME-3M melanoma
[55] = tested on: MCF7 breast
[56] = tested on: NCI-H522 lung
[57] = tested on: SK-MEL-28 melanoma
[58] = tested on: SK-OV-3 ovarian
[59] = tested on: SNB-19 CNS

SMILES: CCN(CC)CCNc1ccc([N+](=O)[O-])c2nc3ccccc3c(N)c12
- TGI [1]: 2.04 µM
- TGI [2]: 2.91 µM
- TGI [3]: 2.39 µM
- TGI [4]: 3.75 µM
- TGI [5]: 2.38 µM
- TGI [6]: > 10 µM
- TGI [7]: 2080 nM
- TGI [8]: 1.47 µM
- TGI [9]: > 10 µM
- TGI [10]: 2.51 µM
- TGI [11]: 1.5 µM
- TGI [12]: 1.75 µM
- TGI [13]: 2.11 µM
- TGI [14]: > 10 µM
- TGI [15]: 5.84 µM
- TGI [16]: 1.83 µM
- TGI [17]: 2.28 µM
- TGI [18]: > 10 µM
- TGI [19]: 1.75 µM
- TGI [20]: 1.41 µM
- TGI [21]: 1.61 µM
- TGI [22]: 1.67 µM
- TGI [23]: 2.4 µM
- TGI [24]: 1.67 µM
- TGI [25]: 2140 nM
- TGI [26]: 2.23 µM
- TGI [27]: 5.62 µM
- TGI [28]: 2.03 µM
- TGI [29]: 1.24 µM
- TGI [30]: 1.94 µM
- TGI [31]: 5.13 µM
- TGI [32]: 1.48 µM
- TGI [33]: 5.26 µM
- TGI [34]: > 10 µM
- TGI [35]: 1.74 µM
- TGI [36]: 6.18 µM
- TGI [37]: 1.52 µM
- TGI [38]: 3.79 µM
- TGI [39]: 1.75 µM
- TGI [40]: 1.84 µM
- TGI [41]: 955 nM
- TGI [42]: 1.1 µM
- TGI [43]: > 10 µM
- TGI [44]: 2.39 µM
- TGI [45]: 2.39 µM
- TGI [46]: 1.91 µM
- TGI [47]: > 10 µM
- TGI [48]: > 10 µM
- TGI [49]: > 10 µM
- TGI [50]: 7.37 µM
- TGI [51]: 4.07 µM
- TGI [52]: 5.94 µM

SMILES: COc1ccc(-c2cc(-c3ccccc3)n(C3OC(COC(C)=O)C(OC(C)=O)C(OC(C)=O)C3OC(C)=O)c(=S)c2C#N)cc1 (stereo unspecified)
- TGI [1]: 12.4 µM
- TGI [3]: 39.3 µM
- TGI [4]: 29.7 µM
- TGI [5]: 34.9 µM
- TGI [6]: 19 µM
- TGI [8]: 23.4 µM
- TGI [9]: 23.9 µM
- TGI [10]: 31.9 µM
- TGI [53]: > 100 µM
- TGI [11]: 19.2 µM
- TGI [12]: > 100 µM
- TGI [13]: 13.4 µM
- TGI [14]: 14.4 µM
- TGI [15]: 15.5 µM
- TGI [16]: 23.5 µM
- TGI [17]: 18.7 µM
- TGI [18]: 32 µM
- TGI [19]: > 100 µM
- TGI [20]: 44.7 µM
- TGI [21]: > 100 µM
- TGI [22]: 20.5 µM
- TGI [54]: 23.2 µM
- TGI [55]: > 100 µM
- TGI [23]: 16.4 µM
- TGI [24]: 19.4 µM
- TGI [25]: 25500 nM
- TGI [26]: > 100 µM
- TGI [27]: 23.1 µM
- TGI [28]: 47.7 µM
- TGI [29]: 22.2 µM
- TGI [56]: 18.5 µM
- TGI [30]: 50.5 µM
- TGI [31]: 23.5 µM
- TGI [32]: 8.06 µM
- TGI [33]: 29.2 µM
- TGI [34]: 19.7 µM
- TGI [35]: 32.3 µM
- TGI [36]: 16.7 µM
- TGI [37]: 23.2 µM
- TGI [38]: 58.2 µM
- TGI [39]: 17.9 µM
- TGI [40]: 14.4 µM
- TGI [57]: 25.1 µM
- TGI [42]: 19.4 µM
- TGI [58]: 32.9 µM
- TGI [59]: 23.1 µM
- TGI [44]: 19.2 µM
- TGI [45]: 37.5 µM
- TGI [46]: > 100 µM
- TGI [47]: 25.7 µM
- TGI [48]: 40.7 µM
- TGI [49]: 18.7 µM
- TGI [51]: 16.4 µM
- TGI [52]: 21.3 µM

SMILES: COc1cc2cc(c1Cl)N(C)C(=O)CC(OC(=O)C(C)C)C1(C)OC1C(C)C1CC(O)(NC(=O)O1)C(OC)/C=C/C=C(C)C2 (stereo unspecified)
- TGI [1]: 30.6 µM
- TGI [2]: 36.7 µM
- TGI [3]: 33.1 µM
- GI50 [4]: 12.6 nM
- TGI [5]: 82.9 µM
- TGI [6]: 19.1 µM
- TGI [10]: 16.6 µM
- TGI [11]: 13.8 µM
- TGI [14]: 62 µM
- TGI [54]: 25.1 µM
- TGI [25]: 1410 nM
- TGI [28]: 48.5 µM
- TGI [32]: 40.8 µM
- TGI [33]: 38.6 µM
- TGI [36]: 12.9 µM
- TGI [38]: 15.4 µM
- GI50 [57]: 17.6 µM
- TGI [58]: 53.4 µM
- TGI [43]: 46.7 µM
- GI50 [47]: 29.1 µM
- TGI [48]: 36.4 µM
- TGI [50]: 23.8 µM
- TGI [52]: 18.9 µM

SMILES: CC1C2Cc3ccc(O)cc3C1(C)CCN2C (stereo unspecified)
- TGI [1]: > 100 µM
- TGI [2]: > 100 µM
- TGI [3]: > 100 µM
- TGI [4]: > 100 µM
- TGI [6]: > 100 µM
- TGI [7]: > 100000 nM
- TGI [8]: > 100 µM
- TGI [9]: > 100 µM
- TGI [10]: > 100 µM
- TGI [53]: > 100 µM
- TGI [11]: > 100 µM
- TGI [12]: > 100 µM
- TGI [13]: > 100 µM
- TGI [14]: > 100 µM
- TGI [16]: > 100 µM
- TGI [17]: > 100 µM
- TGI [18]: > 100 µM
- TGI [19]: > 100 µM
- TGI [20]: > 100 µM
- TGI [21]: > 100 µM
- TGI [22]: > 100 µM
- TGI [54]: > 100 µM
- TGI [55]: > 100 µM
- TGI [23]: > 100 µM
- TGI [24]: > 100 µM
- TGI [25]: > 100000 nM
- TGI [26]: > 100 µM
- TGI [27]: > 100 µM
- TGI [28]: > 100 µM
- TGI [29]: > 100 µM
- TGI [56]: > 100 µM
- TGI [30]: > 100 µM
- TGI [31]: > 100 µM
- TGI [32]: > 100 µM
- TGI [33]: > 100 µM
- TGI [34]: > 100 µM
- TGI [35]: > 100 µM
- TGI [36]: > 100 µM
- TGI [37]: > 100 µM
- TGI [38]: > 100 µM
- TGI [39]: > 100 µM
- TGI [40]: > 100 µM
- TGI [41]: > 100000 nM
- TGI [57]: > 100 µM
- TGI [42]: > 100 µM
- TGI [58]: > 100 µM
- TGI [43]: > 100 µM
- TGI [59]: > 100 µM
- TGI [44]: > 100 µM
- TGI [45]: > 100 µM
- TGI [46]: > 100 µM
- TGI [47]: > 100 µM
- TGI [48]: > 100 µM
- TGI [49]: > 100 µM
- TGI [50]: > 100 µM
- TGI [51]: > 100 µM
- TGI [52]: > 100 µM
